# Laboratory results: US20170000908A1, “A MICELLAR PARTICLE” (AGENCY FOR SCIENCE, TECHNOLOGY AND RESEARCH, priority 2013, published 2017)
# How the values were obtained:
# [1] = Quantum yield measured against fluorescence standard solutions; type: physicochemical; settings: dye in THF
# Method: Quantum yield was measured with respect to the fluorescence standard solution, namely fluorescein (Ethanol; QY=0.79), and rhodamine B (Ethanol; QY=0.49). Fluorescein was used as a reference for Coumarin545T@SiO2, whereas rhodamine B was used for DCJTB@SiO2. The procedures involved diluting the fluorescent silica nanocapsules and the fluorescence standard solution with their respective solvent to have the same absorbance at excitation wavelength (460 nm for fluorescein; 490 nm for rhodamine B). Quantum yields for fluorescent silica nanocapsules were measured by dividing, the integrated emission area of their fluorescent spectrum against that of fluorecein or rhodamine B in Ethanol. […] In addition, the lifetime of Coumarin545T@SiO2 was determined to be 3.38 ns, while the lifetime of coumarin545T in THF was determined to be 2.86 ns. Similarly, the lifetime of DCJTB@SiO2 was determined to be 3.40 ns, while the lifetime of DCJTB in THF was determined to be 2.50 ns.
# [2] = Photoluminescence lifetime by Time Correlated Single Photon Counting (TCSPC); type: physicochemical; settings: dye in THF; excited at 405 nm
# Method: The photoluminescence lifetimes of the Coumarin545T@SiO2 and DCJTB@SiO2 samples were measured using a Time Correlated Single Photon Counting (TCSPC) module (PicoQuant PicoHarp 300 of PicoQuant of Berlin, Germany). The Coumarin545T@SiO2 and DCJTB@SiO2 samples were excited by using 405 nm line of a picosecond pulsed laser diode (PicoQuant PDL 800-B). The photoluminescence was dispersed through a monochromator (Acton SpectroPro 2300i) and detected with a micro channel plate photomultiplier tube (MCP-PMT) detector (Hamamatsu R3809U-50).
# FIG. 4 is a graph showing the time-resolved photoluminescence decay of Coumarin545T dissolved in THF and that when encapsulated inside the core of the nanocapsules. FIG. 5 is a graph showing the time-resolved photoluminescence decay of DCJTB dissolved in THF and that when encapsulated inside the core of the nanocapsules. […] Based on these figures, when compared to the photoluminescence behavior of the dye solutions (Coumarin545T or DCJTB) in their respective solvents, there is a significant red-shift in the emission peak for both of the silica nanocapsules, which should be ascribed to the π-π stacking of the dye molecules by encapsulation. The emission spectra of the nanocapsules are also broader than the dye solutions in their respective solvents. […]
# [3] = UV-Vis and photoluminescent spectra (emission peak, fwhm); type: physicochemical; settings: dye in THF
# Description: The UV-Vis and photoluminescent spectra of Coumarin545T@SiO2 are shown in FIG. 2 while those of DCJTB@SiO2 are shown in FIG. 3.
# FIG. 4 is a graph showing the time-resolved photoluminescence decay of Coumarin545T dissolved in THF and that when encapsulated inside the core of the nanocapsules. FIG. 5 is a graph showing the time-resolved photoluminescence decay of DCJTB dissolved in THF and that when encapsulated inside the core of the nanocapsules. […] Based on these figures, when compared to the photoluminescence behavior of the dye solutions (Coumarin545T or DCJTB) in their respective solvents, there is a significant red-shift in the emission peak for both of the silica nanocapsules, which should be ascribed to the π-π stacking of the dye molecules by encapsulation. The emission spectra of the nanocapsules are also broader than the dye solutions in their respective solvents. The silica coating could lead to improvement in the photostability of the dye molecules by limiting their contact with the outside environment, especially soluble oxygen molecules.
# [4] = Ethanol; cited from earlier work
Compound,Quantum Yield (QY) [1],Fluorescence Lifetime (τ) [2],fwhm [3],λem [3],Quantum yield (QY) of fluorescence standard solution [4]
CC(C)(C)C1=CC(=C(C#N)C#N)C=C(/C=C/c2cc3c4c(c2)C(C)(C)CCN4CCC3(C)C)O1 [DCJTB],0.99,2.50 ns,73 nm,605 nm,
CCN(CC)c1ccc2c(-c3ccccc3C(=O)O)c3ccc(=[N+](CC)CC)cc-3oc2c1.[Cl-] [rhodamine B],,,,,0.49
CC1(C)CCN2CCC(C)(C)c3c2c1cc1cc(-c2nc4ccccc4s2)c(=O)oc31 [Coumarin 545T],0.99,2.86 ns,35 nm,504 nm,
